Test results from patent US5622983A, “N-substituted cycloalkyl and polycycloalkyl α-substituted Trp-Phe- and phenethylamine derivatives” (Warner-Lambert Company, priority 1995, dated 1997).
pKi: −log10 of the molar value.

These compounds were tested against T1, Central CCK Receptors (Mus musculus, UniProt P56481) (assay: Binding to central CCK receptors (tritiated-pentagastrin displacement, cerebral cortical membranes)). Conditions: not given.
T1 sequence (P56481 1-453): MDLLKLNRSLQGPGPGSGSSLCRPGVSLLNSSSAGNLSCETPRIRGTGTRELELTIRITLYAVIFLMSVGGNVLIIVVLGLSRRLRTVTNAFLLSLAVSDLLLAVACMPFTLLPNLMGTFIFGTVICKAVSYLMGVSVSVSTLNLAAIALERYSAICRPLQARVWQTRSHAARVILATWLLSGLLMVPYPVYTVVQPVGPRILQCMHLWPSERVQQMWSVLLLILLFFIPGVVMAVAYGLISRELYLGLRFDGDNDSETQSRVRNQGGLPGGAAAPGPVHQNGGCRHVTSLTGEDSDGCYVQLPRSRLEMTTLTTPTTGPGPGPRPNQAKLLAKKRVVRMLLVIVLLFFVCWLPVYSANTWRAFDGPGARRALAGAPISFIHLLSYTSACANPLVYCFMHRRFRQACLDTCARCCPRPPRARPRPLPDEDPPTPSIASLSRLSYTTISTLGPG

Row | Compound | pKi
1 | C[C@](Cc1c[nH]c2ccccc12)(NC(=O)OC1CC2CC3CC(C2)C1C3)C(=O)N[C@H](CO)Cc1ccccc1 (some centres unmarked) [Example 11] | 7.27

Same assay, conditions: read-out: Binding to Central CCK Receptors Ki; displacement of 2 nM tritiated-pentagastrin, mouse cerebral cortical membranes

Row | Compound | pKi
2 | CC(Cc1c[nH]c2ccccc12)(NC(=O)OC12CC3CC(CC(C3)C1)C2)C(=O)NCCc1ccccc1 (racemic) [Example 1, (±)-Tricyclo[3.3.1^3,7]dec-1-yl [1-(1H-indol-3-ylmethyl)-1-methyl-2-oxo-2-[(2-phenylethyl)amino]ethyl]carbamate] | 5.91
3 | CC(Cc1c[nH]c2ccccc12)(NC(=O)OC1CC2CCC1(C)C2(C)C)C(=O)NCCc1ccccc1 (racemic) [Example 7, (±)-Endo-1,7,7-trimethylbicyclo[2.2.1]hept-2-yl-[1-(1H-indol-3-ylmethyl)-1-methyl-2-oxo-2-[(2-phenylethyl)amino]ethyl]-carbamate] | 6.12
4 | CC(Cc1c[nH]c2ccccc12)(NC(=O)OC1CC2CCC1(C)C2(C)C)C(=O)NCCc1ccccc1 (racemic) [Example 8, (±)-Exo-1,7,7-trimethylbicyclo[2.2.1]hept-2-yl-[1-(1H-indol-3-ylmethyl)-1-methyl-2-oxo-2-[(2-phenylethyl)amino]ethyl]-carbamate] | 6.08
5 | CC(Cc1c[nH]c2ccccc12)(NC(=O)OC1CC2CCC1C2)C(=O)NCCc1ccccc1 (racemic) [Example 9, (±)-Exo-bicyclo[2.2.1]hept-2-yl [1-(1H-indol-3-ylmethyl)-1-methyl-2-oxo-2-[(2-phenylethyl)amino]ethyl]carbamate] | 5.12
6 | CC(Cc1c[nH]c2ccccc12)(NC(=O)OC1CC2CCC1C2)C(=O)NCCc1ccccc1 (racemic) [Example 10, (±)-Endo-bicyclo[2.2.1]hept-2-yl [1-(1H-indol-3-ylmethyl)-1-methyl-2-oxo-2-[(2-phenylethyl)amino]ethyl]carbamate] | 5.06
7 | CC(Cc1c[nH]c2ccccc12)(NC(=O)OC1C2CC3CC(C2)CC1C3)C(=O)NCC(NC(=O)C1CC1C(=O)O)c1ccccc1 (racemic) [Example 32, 2-[[[2-[[3-(1H-indol-3-yl)-2-methyl-1-oxo-2-[[(tricyclo-[3.3.1.1^3,7]dec-2-yloxy)carbonyl]amino]propyl]amino]-1-phenylethyl]amino]carbonyl]cyclopropanecarboxylic acid (cyclopropane ring is trans-(±)othercentersare R)] | 8.29
8 | CC1CCCCC1OC(=O)NC(C)(Cc1c[nH]c2ccccc12)C(=O)NCC(NC(=O)CCC(=O)O)c1ccccc1 (single isomer, unassigned) [Example 40, Butanoic acid, 4-[[2-[[3-(1H-indol-3-yl)-2-methyl-2-[[[(2-methyl-1-cyclohexyl)oxy]carbonyl]amino]-1-oxopropyl]amino]-1-phenylethyl]amino]-4-oxo-[1R-[1α[R*(R*)]2β]]-((-)-isomer)] | 8.41
9 | CC1CCCCC1OC(=O)NC(C)(Cc1c[nH]c2ccccc12)C(=O)NCC(NC(=O)C=CC(=O)O)c1ccccc1 (single isomer, unassigned) [Example 41, 2-Butenoic acid, 4-[[2-[[3-(1H-indol-3-yl)-2-methyl-2-[[[(2-methyl-1-cyclohexyl)oxy]carbonyl]amino]-1-oxopropyl]amino]-1-phenylethyl]amino]-4-oxo-, [1R -[1α[R*(R*)], 2β]]-((-)-isomer)] | 9.54
10 | CC1CCCCC1OC(=O)NC(C)(Cc1c[nH]c2ccccc12)C(=O)NC(CNC(=O)C=CC(=O)O)Cc1ccccc1 (single isomer, unassigned) [Example 43, 2-Butenoic acid, 4-[[2-[[3-)1H-indol-3-yl)-2-methyl-2-[[[(2-methyl-1-cyclohexyl)oxy]carbonyl]amino]-1-oxopropyl]amino]-3-phenylpropyl]amino]-4-oxo-[IR[1α[R*(S*)], 2β]]-((-)-isomer)] | 8.40
11 | CC(Cc1c[nH]c2ccccc12)(NC(=O)OC1CC2CC3CC(C2)C1C3)C(=O)NC(COC(=O)CCC(=O)O)Cc1ccccc1 (centres unmarked) [Example 12, 2-[3-1H-indol-3-yl)-2-methyl-2-[[[(octahydro-2,5-methano-1H-inden-7-yl)oxy]carbonyl]amino]-1-oxopropyl]-3-phenylpropyl butanedioate] | 7.07
